The values below come from US6197225A, “Chromene compound” (Tokuyama Corporation, priority 1997, dated 2001).

The conditions of data set [1]: prior-art compound, placed in a dark place after color development; cited from earlier work.
Data set [2] is described as follows: Photochromic properties of cast polymer (2 mm thick) under xenon lamp irradiation for 120 seconds. In kind it is physicochemical. How it is done: 0.04% by weight of the chromene compound obtained in Example 1 was added to 70 parts of 4G, 15 parts of 3G, 10 parts of GMA, 5 parts of HEMA and 1 part of perbutyl ND, and was mixed together to a sufficient degree. The mixture solution was poured into a mold constituted by a glass plate and a gasket of an ethylene/vinyl acetate copolymer, and was cast-polymerized. By using an air furnace, the polymerization was conducted in a manner that the temperature was gradually raised from 30° C. to 90° C. over a period of 18 hours, and was held at 90° C. for 2 hours. After the polymerization, the polymer was taken out from the glass mold.
By using a xenon lamp, L-2480 (300 W) SHL-100, manufactured by Hamamatsu Photonics Co., the obtained polymer (2 mm thick) was irradiated with a beam of an intensity of 365 nm=2.4 mW/cm^2 and 245 nm=24 μW/cm^2 on the surface of the polymer for 120 seconds through an aero-mass filter (manufactured by Corning Co.) at 20° C.±1° C. to develop color and to measure the photochromic properties which were expressed in the following manner.
1 Maximum absorption wavelength (λmax): λmax of the polymer after it has developed color was found by using a spectrophotometer (instantaneous multi-channel photo-detector, MCPD1000) manufactured by Otsuka Denshi Kogyo Co.
2 Initial color ( ε(0)): Absorbency of the polymer in a non-irradiated state at a wavelength same as the maximum absorption wavelength of when it is irradiated with light.
3 Color density (-)=ε(120)-ε(0). ε(120): Absorbency of the polymer at a maximum absorption wavelength after it was irradiated for 120 seconds under the above-mentioned conditions.
4 Color-developing sensitivity (-/min.)=Saturated color density/xenon irradiation time.
Rate of increase in the color density per a unit time until the color density is saturated.
5 Color fading rate [t1/2 (min.)]=time required until the absorbency of the polymer drops down to one-half of [ε(120)-ε(0)] after irradiated for 120 seconds.
(§1) Photochromic polymers were prepared in the same manner as in Example 42 but using the chromene compounds obtained in Examples 2 to 41, and their maximum absorption wavelengths, color densities, fading rates, changes in the coloring degrees and durabilitys were measured.
(§2) For the purpose of comparison, furthermore, the compounds represented by the following formulas (a), (b), (c), (d), (e) and (f) were measured for their maximum absorption wavelengths, color densities, fading rates, changes in the coloring degrees and durabilitys.
(§3) The procedure was carried out in the same manner as in Example 42 but using 100 parts of AC1 and 133 parts of BC1, the sum of the amounts of AC1 and BC1 being 0.04% by weight. The obtained photochromic polymer was measured for its maximum absorption wavelength, initial color, color density, color-developing sensitivity, fading rate, durability and change in the coloring degree.
(§4) The procedure was carried out in the same manner as in Example 83 but using the known chromene compounds shown in Table 6 instead of the chromene compound used in Example 83. […]

Data set [3] in a line: Aging promotion testing: sunlight 30 min / fading one hour cycles, 10 days (durability, coloring degree). Type of data set: physicochemical. How it is done: In order to promote the aging, furthermore, the following testing was conducted. That is, the obtained photochromic polymer was irradiated with sunlight for 30 minutes to develop color, and its color was permitted to fade for one hour in the light of a fluorescent lamp. This cycle was repeated three times a day for a total of 10 days.
The photochromic properties before and after aged were evaluated by evaluating the color densities before and after aged. The initial color density (T0) and the color density (T30) ten days after the aging promotion testing were measured, and the durability was expressed as described below.
Furthermore, the coloring degrees of before developing color were measured before and after aged by using a color difference meter (SM-4) manufactured by Suga Shikenki Co.
7 Coloring degree before being aged=YI(0).
8 Change in the coloring degree (ΔYI)=YI(10)-YI(0)
YI(10): coloring degree after aged
as §1, §2, §3, §4
The obtained polymer (2 mm thick) was caused to develop color outdoors, and tones of the developed color were observed by eyes 30 seconds and 15 minutes after it was brought to the outdoors, and uniformity in the step of developing color was evaluated. […] Furthermore, the aging promoting testing was conducted in the same manner as in Example 42 to find a coloring degree (YI(0)) before aged and a change in the coloring degree (ΔY).

[4] abbreviates: single chromene compound 0.04% by weight in polymer, 20° C., Table 5.
[5] abbreviates: single chromene compound 0.04% by weight in polymer, 120 seconds, 20° C., Table 5.
[6] abbreviates: YI(10)-YI(0), single chromene compound in polymer, 10 days aging, Table 5.
The mark [7] stands for this setting: single chromene compound in polymer, 10 days aging, Table 5.
The mark [8] stands for this setting: chromene composition, or other chromene C1-C4, 10 days aging, Table 6.

On to `C1=CC2(CC3CCC2C3)Oc2c1ccc1ccccc21` (stereo not shown) [(A)], for which the “fading rate (in words)” value in data set [1] was “slow fading rate”.

Turning to `Cc1cc2ccccc2c2c1C=CC(c1ccccc1)(c1ccccc1)O2` [(C)], the “fading rate (in words)” value in data set [1] is on record as “a fading rate nearly the same as that of the above-mentioned compound (A)”.

For `COc1ccc(C2(c3ccc(OC)cc3)C=Cc3c(C(C)C)cc4ccccc4c3O2)cc1` [Compound 13], in data set [2] (setting [4]), the “Fading rate t1/2” value amounted to 3.3 min and the “Maximum absorption wavelength λmax” value was found to be 500 nm. Moreover, the “Color density ε(120)-ε(0)” value in data set [2] (setting [5]) was found to be 0.8. For the same compound, the “Change in the coloring degree ΔYI” value in data set [3] (setting [6]) was 1.5. Besides, the “Light resistance (durability)” value in data set [3] (setting [7]) is 97%.

With `CC(C)(C)c1cc2ccccc2c2c1C=CC(c1ccccc1)(c1cc3ccccc3s1)O2` (stereo not shown) [Compound 11], in data set [2] (setting [4]), the “Fading rate t1/2” value came to 3.4 min and the “Maximum absorption wavelength λmax” value is 485 nm. Further, the “Color density ε(120)-ε(0)” value in data set [2] (setting [5]) amounted to 1.0. Also, the “Change in the coloring degree ΔYI” value in data set [3] (setting [6]) is listed as 1.9. For the same compound, in data set [3] (setting [7]), the “Light resistance (durability)” value is listed as 97%.

As to `C1=CC2(CC3CCC2C3)Oc2c1ccc1ccccc21` (stereo not shown) [Compound C1, Spiro(norbornane-2,2'-(2H)benzo(h)chromene), reference compound], the λ max in data set [2] (chromene composition, or other chromene C1-C4, 0.04% by weight in polymer, Table 6) is 450 nm. Also, the “Color density ε(120)-ε(0)” value in data set [2] (chromene composition, or other chromene C1-C4, 120 seconds, Table 6) is reported as 1.0. Moreover, the “Initial color ε(0)” value in data set [2] (chromene composition, or other chromene C1-C4, non-irradiated, Table 6) amounted to 0.01. In addition, in data set [2] (chromene composition, or other chromene C1-C4, Table 6), the “Fading rate t1/2” value is recorded as greater than 10 min. Moreover, the Color-developing sensitivity in data set [2] (saturated color density/xenon irradiation time, Table 6) is on record as 0.2 -/min. Further, in data set [3] (setting [8]), the “Change in the coloring degree ΔYI” value was 2.0 and the Durability came out at 90%.

Turning to `CCOc1ccc(C2(c3ccc(OCC)cc3)C=Cc3c(C)cc4ccccc4c3O2)cc1` [Compound 29], in data set [2] (setting [4]), the “Fading rate t1/2” value turned out to be 5.8 min and the “Maximum absorption wavelength λmax” value is 504 nm. Besides, in data set [2] (setting [5]), the “Color density ε(120)-ε(0)” value was 1.2. The “Change in the coloring degree ΔYI” value in data set [3] (setting [6]) was 2.4. In data set [3] (setting [7]), the “Light resistance (durability)” value was determined as 98%.

`COc1ccc(C2(c3ccco3)C=Cc3c(C)cc4ccccc4c3O2)cc1F` (stereo not shown) [Compound 31]: in data set [2] (setting [4]), the “Fading rate t1/2” value was 7.0 min and the “Maximum absorption wavelength λmax” value is recorded as 506 nm. The “Color density ε(120)-ε(0)” value in data set [2] (setting [5]) turned out to be 1.1. Besides, in data set [3] (setting [6]), the “Change in the coloring degree ΔYI” value amounted to 3.0. Moreover, the “Light resistance (durability)” value in data set [3] (setting [7]) was 95%.

`C1=CC2(Oc3c1ccc1ccccc31)C1CCCC2CCC1` (stereo not shown) [d, reference compound]: in data set [2] (setting [4]), the “Fading rate t1/2” value amounted to 11 min and the “Maximum absorption wavelength λmax” value turned out to be 452 nm. In data set [2] (setting [5]), the “Color density ε(120)-ε(0)” value came out at 1.0. In addition, the “Change in the coloring degree ΔYI” value in data set [3] (setting [6]) was 1.5. Besides, the “Light resistance (durability)” value in data set [3] (setting [7]) is recorded as 98%.

Regarding `CC(C)(C)c1cc2ccccc2c2c1C=CC1(O2)C2CCCC1CCC2` (stereo not shown) [Compound 2], in data set [2] (setting [4]), the “Fading rate t1/2” value was 1.2 min and the “Maximum absorption wavelength λmax” value came out at 443 nm. Moreover, the “Color density ε(120)-ε(0)” value in data set [2] (setting [5]) is 0.5. The “Change in the coloring degree ΔYI” value in data set [3] (setting [6]) is listed as 1.5. Also, the “Light resistance (durability)” value in data set [3] (setting [7]) came to 96%.

`CCOC(=O)C1=CC(c2ccccc2)(c2ccccc2)Oc2c1cc(C)c1ccccc21` [b, reference compound]: in data set [2] (setting [4]), the “Fading rate t1/2” value was 14 min and the “Maximum absorption wavelength λmax” value is given as 488 nm. In addition, the “Color density ε(120)-ε(0)” value in data set [2] (setting [5]) came out at 1.2. For the same compound, in data set [3] (setting [6]), the “Change in the coloring degree ΔYI” value came out at 6.5. Further, the “Light resistance (durability)” value in data set [3] (setting [7]) is recorded as 80%.

Regarding `CC(C)(C)c1cc2ccccc2c2c1C=CC(c1ccccc1)(c1ccc(OC(F)(F)F)cc1)O2` (stereo not shown) [Compound 17], in data set [2] (setting [4]), the “Fading rate t1/2” value is 3.2 min and the “Maximum absorption wavelength λmax” value is on record as 452 nm. The “Color density ε(120)-ε(0)” value in data set [2] (setting [5]) was determined as 0.7. Besides, the “Change in the coloring degree ΔYI” value in data set [3] (setting [6]) is 0.7. The “Light resistance (durability)” value in data set [3] (setting [7]) is reported as 98%.

Take `COc1ccc(C2(c3ccc(OC)c(F)c3)C=Cc3c(C)cc4ccccc4c3O2)cc1F` [Compound 27]: in data set [2] (setting [4]), the “Fading rate t1/2” value is reported as 7.3 min and the “Maximum absorption wavelength λmax” value was 496 nm. Besides, in data set [2] (setting [5]), the “Color density ε(120)-ε(0)” value stood at 1.1. The “Change in the coloring degree ΔYI” value in data set [3] (setting [6]) came out at 2.3. Further, the “Light resistance (durability)” value in data set [3] (setting [7]) turned out to be 99%.

With `COc1ccc(C2(c3ccc(OC)cc3)C=Cc3c(C)cc4ccccc4c3O2)cc1` [Compound 26], in data set [2] (setting [4]), the “Fading rate t1/2” value was 6.0 min and the “Maximum absorption wavelength λmax” value is recorded as 504 nm. Moreover, the “Color density ε(120)-ε(0)” value in data set [2] (setting [5]) turned out to be 1.2. In addition, the “Change in the coloring degree ΔYI” value in data set [3] (setting [6]) was found to be 2.3. The “Light resistance (durability)” value in data set [3] (setting [7]) was 99%.

As to `CC(C)(C)c1cc2ccccc2c2c1C=CC1(O2)C2(Cl)CCC1(Cl)CC2` (stereo not shown) [Compound 20], in data set [2] (setting [4]), the “Fading rate t1/2” value is 1.3 min and the “Maximum absorption wavelength λmax” value worked out at 440 nm. The “Color density ε(120)-ε(0)” value in data set [2] (setting [5]) is given as 0.4. Besides, the “Change in the coloring degree ΔYI” value in data set [3] (setting [6]) was 4.0. Besides, the “Light resistance (durability)” value in data set [3] (setting [7]) came to 80%.
